# Source: PubChem BioAssay (NCI)
#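 Five concentrations, 48 hours, 96-well plates. TGI: concentration producing complete growth inhibition.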
# What was measured:
# Test in all cases: DTP human tumour cell line panel, 48 h
# [1] = system: NCI-H23 lung
# [2] = system: NCI-H226 lung
# [3] = system: HOP-92 NSCLC
# [4] = system: KM12 colon
# [5] = system: RXF-631 renal
# [6] = system: SF-268 CNS
# [7] = system: SW-620 colon
# [8] = system: TK-10 renal
# [9] = system: OVCAR-3 ovarian
# [10] = system: 786-0 renal
# [11] = system: XF 498 CNS
# [12] = system: SK-OV-3 ovarian
# [13] = system: SNB-78 CNS
# [14] = system: IGROV1 ovarian
# [15] = system: SNB-19 CNS
# [16] = system: UO-31 renal
# [17] = system: M14 melanoma
# [18] = system: K-562 leukemia
# [19] = system: SK-MEL-28 melanoma
# [20] = system: NCI-H522 lung
# [21] = system: SK-MEL-2 melanoma
# [22] = system: SNB-75 CNS
# [23] = system: SR leukemia
# [24] = system: M19-MEL melanoma
# [25] = system: RPMI-8226 leukemia
# [26] = system: ACHN renal
# [27] = system: DMS 273 small cell lung
# [28] = system: CCRF-CEM leukemia
# [29] = system: KM20L2 colon
# [30] = system: HCT-15 colon
# [31] = system: SN12C renal
# [32] = system: LXFL 529 NSCLC
# [33] = system: HT29 colon
# [34] = system: EKVX NSCLC
# [35] = system: MALME-3M melanoma
# [36] = system: SF-295 CNS
# [37] = system: UACC-62 melanoma
# [38] = system: HCT-116 colon
# [39] = system: UACC-257 melanoma
# [40] = system: HL-60(TB) leukemia
# [41] = system: SF-539 CNS
# [42] = system: CAKI-1 renal
# [43] = system: A549 NSCLC
# [44] = system: DLD-1 colon
# [45] = system: MOLT-4 leukemia
# [46] = system: LOX IMVI melanoma
# [47] = system: OVCAR-4 ovarian
# [48] = system: DMS 114 small cell lung
# [49] = system: HOP-62 NSCLC
# [50] = system: U251 CNS
# [51] = system: HCC-2998 colon
# [52] = system: COLO 205 colon
# [53] = system: NCI-H460 lung
# [54] = system: SK-MEL-5 melanoma
# [55] = system: A498 renal
# [56] = system: RXF 393 renal
# [57] = system: HOP-18 NSCLC
# [58] = system: OVCAR-8 ovarian
# [59] = system: OVCAR-5 ovarian
structure (smiles),measurement,setting,value
NNC(=O)N/N=C(/CC1(O)C(=O)Nc2ccc(Br)cc21)c1ccccc1 (stereo unspecified),TGI,[1],> 100 µM
same,TGI,[2],> 100 µM
same,TGI,[3],63.8 µM
same,TGI,[4],87.5 µM
same,TGI,[5],> 100 µM
same,TGI,[6],> 100 µM
same,TGI,[7],> 100 µM
same,TGI,[8],> 100 µM
same,TGI,[9],> 100 µM
same,TGI,[10],> 100 µM
same,TGI,[11],38.5 µM
same,TGI,[12],> 100 µM
same,TGI,[13],> 100 µM
same,TGI,[14],> 100 µM
same,TGI,[15],46.2 µM
same,TGI,[16],49.3 µM
same,TGI,[17],> 100 µM
same,TGI,[18],69.1 µM
same,TGI,[19],> 100 µM
same,TGI,[20],46.6 µM
same,TGI,[21],85.2 µM
same,TGI,[22],> 100 µM
same,TGI,[23],87.8 µM
same,TGI,[24],> 100 µM
same,TGI,[25],> 100 µM
same,TGI,[26],> 100 µM
same,TGI,[27],> 100 µM
same,TGI,[28],65.2 µM
same,TGI,[29],> 100 µM
same,TGI,[30],> 100 µM
same,TGI,[31],> 100 µM
same,TGI,[32],> 100 µM
same,TGI,[33],> 100 µM
same,TGI,[34],> 100 µM
same,TGI,[35],> 100 µM
same,TGI,[36],> 100 µM
same,TGI,[37],50.9 µM
same,TGI,[38],72.6 µM
same,TGI,[39],> 100 µM
same,TGI,[40],51.7 µM
same,TGI,[41],> 100 µM
same,TGI,[42],> 100 µM
same,TGI,[43],> 100 µM
same,TGI,[44],> 100 µM
same,TGI,[45],44.2 µM
same,TGI,[46],35.1 µM
O=C(Nc1ccc(Nc2ccc(NC(=O)c3ccccc3)c3c2C(=O)c2ccccc2C3=O)c2c1C(=O)c1ccccc1C2=O)c1ccccc1,TGI,[2],> 100 µM
same,TGI,[47],> 100 µM
same,TGI,[4],> 100 µM
same,TGI,[5],> 100 µM
same,TGI,[6],> 100 µM
same,TGI,[7],> 100 µM
same,TGI,[8],> 100 µM
same,TGI,[48],> 100 µM
same,TGI,[9],> 100 µM
same,TGI,[10],> 100 µM
same,TGI,[12],> 100 µM
same,TGI,[13],> 100 µM
same,TGI,[14],> 100 µM
same,TGI,[15],> 100 µM
same,TGI,[49],> 100 µM
same,TGI,[16],> 100 µM
same,TGI,[17],> 100 µM
same,TGI,[18],> 100 µM
same,TGI,[19],> 100 µM
same,TGI,[20],> 100 µM
same,TGI,[21],> 100 µM
same,TGI,[22],> 100 µM
same,TGI,[23],> 100 µM
same,TGI,[24],> 100 µM
same,TGI,[25],> 100 µM
same,TGI,[26],> 100 µM
same,TGI,[27],> 100 µM
same,TGI,[28],> 100 µM
same,TGI,[29],> 100 µM
same,TGI,[30],> 100 µM
same,TGI,[50],> 100 µM
same,TGI,[31],> 100 µM
same,TGI,[32],> 100 µM
same,TGI,[34],> 100 µM
same,TGI,[51],> 100 µM
same,TGI,[52],> 100 µM
same,TGI,[35],> 100 µM
same,TGI,[37],> 100 µM
same,TGI,[38],> 100 µM
same,TGI,[39],> 100 µM
same,TGI,[53],> 100 µM
same,TGI,[40],> 100 µM
same,TGI,[54],> 100 µM
same,TGI,[41],> 100 µM
same,TGI,[55],> 100 µM
same,TGI,[42],> 100 µM
same,TGI,[56],> 100 µM
same,TGI,[57],> 100 µM
same,TGI,[43],> 100 µM
same,TGI,[44],> 100 µM
same,TGI,[45],> 100 µM
same,TGI,[58],> 100 µM
O=S(O)CCCCCSSc1ccc(Cl)cc1,TGI,[1],44.4 µM
same,TGI,[47],> 100 µM
same,TGI,[4],60.7 µM
same,TGI,[5],46.8 µM
same,TGI,[6],23.5 µM
same,TGI,[8],54.4 µM
same,TGI,[9],31.3 µM
same,TGI,[59],50.2 µM
same,TGI,[11],36 µM
same,TGI,[12],> 100 µM
same,TGI,[13],70.3 µM
same,TGI,[15],91.4 µM
same,TGI,[49],41.3 µM
same,TGI,[16],26.3 µM
same,TGI,[17],71.5 µM
same,TGI,[18],> 100 µM
same,TGI,[19],66.6 µM
same,TGI,[20],28.5 µM
same,TGI,[21],34.7 µM
same,TGI,[22],56.2 µM
same,TGI,[24],91 µM
same,TGI,[28],> 100 µM
same,TGI,[50],21.7 µM
same,TGI,[31],31.1 µM
same,TGI,[32],27 µM
same,TGI,[33],70.5 µM
same,TGI,[34],> 100 µM
same,TGI,[51],73.7 µM
same,TGI,[35],89.9 µM
same,TGI,[38],77.2 µM
same,TGI,[39],59.3 µM
same,TGI,[53],> 100 µM
same,TGI,[40],> 100 µM
same,TGI,[41],29.5 µM
same,TGI,[55],36.6 µM
same,TGI,[56],31.4 µM
same,TGI,[44],67.5 µM
same,TGI,[46],29.9 µM
C=CCc1cc(OC)c(O)c(C(=O)/C=C/c2ccc(OC)c(OC)c2)c1,TGI,[1],30.5 µM
same,TGI,[47],34.9 µM
same,TGI,[4],44.9 µM
same,TGI,[5],83.9 µM
same,TGI,[6],53.1 µM
same,TGI,[7],97.1 µM
same,TGI,[8],64.1 µM
same,TGI,[48],52.1 µM
same,TGI,[9],41.3 µM
same,TGI,[59],45.4 µM
same,TGI,[10],35.9 µM
same,TGI,[11],27 µM
same,TGI,[12],64.9 µM
same,TGI,[13],> 100 µM
same,TGI,[14],> 100 µM
same,TGI,[15],30.5 µM
same,TGI,[16],29.6 µM
same,TGI,[17],31.7 µM
same,TGI,[18],41.8 µM
same,TGI,[19],33.6 µM
same,TGI,[20],7.08 µM
same,TGI,[21],28.8 µM
same,TGI,[22],59.3 µM
same,TGI,[25],3.31 µM
same,TGI,[26],45.9 µM
same,TGI,[27],> 100 µM
same,TGI,[28],56.4 µM
same,TGI,[50],37.8 µM
same,TGI,[32],54.7 µM
same,TGI,[33],33.1 µM
same,TGI,[34],52.5 µM
same,TGI,[51],38.6 µM
same,TGI,[52],31.4 µM
same,TGI,[35],37 µM
same,TGI,[36],74.1 µM
same,TGI,[37],52.2 µM
same,TGI,[38],27.6 µM
same,TGI,[39],37.4 µM
same,TGI,[53],> 100 µM
same,TGI,[40],38 µM
same,TGI,[54],36.6 µM
same,TGI,[41],48.1 µM
same,TGI,[55],39.7 µM
same,TGI,[42],58.7 µM
same,TGI,[43],> 100 µM
same,TGI,[44],37.2 µM
same,TGI,[46],91.8 µM
COC12OCCN(C)C1=CC(=O)C1N=NCC12 (stereo unspecified),TGI,[1],> 100 µM
same,TGI,[2],> 100 µM
same,TGI,[3],> 100 µM
same,TGI,[4],> 100 µM
same,TGI,[5],> 100 µM
same,TGI,[7],> 100 µM
same,TGI,[8],> 100 µM
same,TGI,[48],> 100 µM
same,TGI,[9],> 100 µM
same,TGI,[10],> 100 µM
same,TGI,[12],> 100 µM
same,TGI,[13],> 100 µM
same,TGI,[14],> 100 µM
same,TGI,[16],> 100 µM
same,TGI,[17],> 100 µM
same,TGI,[18],> 100 µM
same,TGI,[19],> 100 µM
same,TGI,[20],> 100 µM
same,TGI,[22],> 100 µM
same,TGI,[24],> 100 µM
same,TGI,[25],> 100 µM
same,TGI,[27],> 100 µM
same,TGI,[28],> 100 µM
same,TGI,[30],> 100 µM
same,TGI,[50],> 100 µM
same,TGI,[31],> 100 µM
same,TGI,[32],> 100 µM
same,TGI,[33],> 100 µM
same,TGI,[34],> 100 µM
same,TGI,[51],> 100 µM
same,TGI,[52],> 100 µM
same,TGI,[36],> 100 µM
same,TGI,[37],> 100 µM
same,TGI,[38],> 100 µM
same,TGI,[39],> 100 µM
same,TGI,[53],> 100 µM
same,TGI,[40],> 100 µM
same,TGI,[54],> 100 µM
same,TGI,[41],> 100 µM
same,TGI,[55],> 100 µM
same,TGI,[42],> 100 µM
same,TGI,[56],> 100 µM
same,TGI,[57],> 100 µM
same,TGI,[43],> 100 µM
same,TGI,[44],> 100 µM
same,TGI,[45],> 100 µM
same,TGI,[46],> 100 µM
same,TGI,[58],> 100 µM
